Read-outs that look alike come from different tables or passages of the source.
Test system: SARS-CoV-2 strain USA-WA1/2020
Test: microbe, parasite or virus in culture
Format: cell-based
Conditions: Severe acute respiratory syndrome coronavirus 2, HeLa-ACE2, 24 h, read-out: EC50, uM (Hela)
[1] = HeLa-ACE2 cells, SARS-CoV-2 infection, 24 h
[2] = HeLa-ACE2 cells, SARS-CoV-2 infection, 24 h, class symbols

Structure (SMILES)	EC50 [1] [µM]	EC50 [2] [µM]	further results
O=C1NCC[C@H]1C[C@H](NC(=O)[C@@H]1C[C@@H](C(F)(F)F)CN1C(=O)[C@@H](O)c1ccccc1)C(=O)COC(F)(F)F [Compound 785, (2S,4R)-1-((S)-2-hydroxy-2-phenylacetyl)-N-((S)-3-oxo-1-((S)-2-oxopyrrolidin-3-yl)-4-(trifluoromethoxy)butan-2-yl)-4-(trifluoromethyl)pyrrolidine-2-carboxamide]	0.05 to 0.2	–	–
CC(F)(F)CCC(=O)N1CC2(CC2)C[C@H]1C(=O)N[C@@H](C[C@@H]1CCNC1=O)C(=O)COC(F)(F)F [Compound 678, (S)-5-(4,4-difluoropentanoyl)-N-((S)-3-oxo-1-((S)-2-oxopyrrolidin-3-yl)-4-(trifluoromethoxy)butan-2-yl)-5-azaspiro[2.4]heptane-6-carboxamide]	< 0.05	–	–
O=C(CC(C(F)(F)F)C(F)(F)F)C(=O)N1CC2(CC2)C[C@H]1C(=O)N[C@@H](C[C@@H]1CCNC1=O)C(=O)COC(F)(F)F [Compound 743, (S)-N-((S)-3-oxo-1-((S)-2-oxopyrrolidin-3-yl)-4-(trifluoromethoxy)butan-2-yl)-5-(5,5,5-trifluoro-2-oxo-4-(trifluoromethyl)pentanoyl)-5-azaspiro[2.4]heptane-6-carboxamide]	< 0.05	–	–
CC(C)(C)C[C@H](NC(=O)c1cc2cc(F)ccc2[nH]1)C(=O)N[C@@H](C[C@@H]1CCNC1=O)C(=O)COc1c(F)c(F)cc(F)c1F [Compound 13, N-((S)-4,4-dimethyl-1-oxo-1-(((S)-3-oxo-1-((S)-2-oxopyrrolidin-3-yl)-4-(2,3,5,6-tetrafluorophenoxy)butan-2-yl)amino)pentan-2-yl)-5-fluoro-1H-indole-2-carboxamide]	–	0.5 to 1	–
O=C1NCC[C@H]1C[C@H](NC(=O)[C@@H]1[C@H]2CCC[C@H]2CN1C(=O)C12CCC(CC1)O2)C(=O)COC(F)(F)F [Compound 308, (1S,3aR,6aS)-2-(7-oxabicyclo[2.2.1]-heptane-1-carbonyl)-N-((S)-3-oxo-1-((S)-2-oxopyrrolidin-3-yl)-4-(trifluoromethoxy)butan-2-yl)octahydrocyclo-penta[c]pyrrole-1-carboxamide]	–	0.05 to 0.2	–
CC(C)C[C@H](NC(=O)C(=O)Nc1ccccc1)C(=O)N[C@@H](C[C@@H]1CCNC1=O)C(=O)COP(C)(=O)c1ccccc1 (stereo partly drawn) [Compound 653, (S)-3-((S)-4-methyl-2-(2-oxo-2-(phenylamino)acetamido)pentanamido)-2-oxo-4-((S)-2-oxopyrrolidin-3-yl)butyl methyl(phenyl)phosphinate]	–	–	EC50: 0.2 to 0.5 µM
CC(C)C[C@H](NC(=O)C(=O)NC1CCC1)C(=O)N[C@@H](C[C@@H]1CCNC1=O)C(=O)COc1c(F)c(F)cc(F)c1F [Compound 124, N1-cyclobutyl-N2-((S)-4-methyl-1-oxo-1-(((S)-3-oxo-1-((S)-2-oxopyrrolidin-3-yl)-4-(2,3,5,6-tetrafluorophenoxy)butan-2-yl)amino)pentan-2-yl)oxalamide]	–	0.05 to 0.2	–
CC(C)C[C@H](NC(=O)C(=O)NCc1cc(Cl)ccc1Cl)C(=O)N[C@@H](C[C@@H]1CCNC1=O)C(=O)COc1c(F)c(F)cc(F)c1F [Compound 59, Nl-(2,5-dichlorobenzyl)-N2-((S)-4-methyl-1-oxo-1-(((S)-3-oxo-1-((S)-2-oxopyrrolidin-3-yl)-4-(2,3,5,6-tetrafluorophenoxy)butan-2-yl)amino)pentan-2-yl)oxalamide]	–	0.2 to 0.5	–
CC(C)C[C@@H](OC(=O)C(C)C)C(=O)N1CC2(CC2)C[C@H]1C(=O)N[C@@H](C[C@@H]1CCNC1=O)C(=O)COC(F)(F)F [Compound 631, (R)-4-methyl-1-oxo-1-((S)-6-(((S)-3-oxo-l-((S)-2-oxopyrrolidin-3-yl)-4-(trifluoromethoxy)butan-2-yl)carbamoyl)-5-azaspiro[2.4]heptan-5-yl)pentan-2-yl isobutyrate]	0.2 to 0.5	–	–
O=C(NC1CC(F)(F)C1)C(=O)N[C@@H](Cc1ccccc1)C(=O)N[C@@H](C[C@@H]1CCNC1=O)C(=O)COC(F)(F)F [Compound 182, N1-(3,3-difluorocyclobutyl)-N2-((S)-1-oxo-1-(((S)-3-oxo-1-((S)-2-oxopyrrolidin-3-yl)-4-(trifluoromethoxy)butan-2-yl)amino)-3-phenylpropan-2-yl)oxalamide]	–	< 0.05	–
Cc1ccccc1NC(=O)C(=O)N1C[C@H]2[C@@H]([C@H]1C(=O)N[C@@H](C[C@@H]1CCNC1=O)C(=O)COC(F)(F)F)C2(C)C [Compound 473, (1R,2S,5S)-6,6-dimethyl-N-((S)-3-oxo-1-((S)-2-oxopyrrolidin-3-yl)-4-(trifluoromethoxy)butan-2-yl)-3-(2-oxo-2-(o-tolylamino)acetyl)-3-azabicyclo[3.1.0]hexane-2-carboxamide]	< 0.05	–	–
CC(C)NC(=O)C(=O)N1CC2(CC2)C[C@H]1C(=O)N[C@@H](C[C@@H]1CCNC1=O)C(=O)COC(F)(F)F [Compound 747, (S)-5-(2-(isopropylamino)-2-oxoacetyl)-N-((S)-3-oxo-1-((S)-2-oxopyrrolidin-3-yl)-4-(trifluoromethoxy)butan-2-yl)-5-azaspiro[2.4]heptane-6-carboxamide]	< 0.05	–	–
CC(C)C[C@@H](OC(=O)Nc1ccccc1)C(=O)N1CC2(CC2)C[C@H]1C(=O)N[C@@H](C[C@@H]1CCNC1=O)C(=O)COC(F)(F)F [Compound 331, (R)-4-methyl-1-oxo-1-((S)-6-(((S)-3-oxo-l-((S)-2-oxopyrrolidin-3-yl)-4-(trifluoromethoxy)butan-2-yl)carbamoyl)-5-azaspiro[2.4]heptan-5-yl)pentan-2-yl phenylcarbamate]	–	< 0.05	–
CC(C)C[C@H](NC(=O)C(=O)NC1(C)CC1)C(=O)N[C@@H](C[C@@H]1CCNC1=O)C(=O)COC(F)(F)F [Compound 217, N1-((S)-4-methyl-1-oxo-1-(((S)-3-oxo-1-((S)-2-oxopyrrolidin-3-yl)-4-(trifluoromethoxy)butan-2-yl)amino)pentan-2-yl)-N2-(1-methylcyclopropyl)-oxalamide]	–	< 0.05	–
O=C1NCC[C@H]1C[C@H](NC(=O)[C@@H]1CC2(CC2)CN1C(=O)C1CC(F)(F)C1)C(=O)COC(F)(F)F [Compound 721, (S)-5-(3,3-difluorocyclobutane-1-carbonyl)-N-((S)-3-oxo-1-((S)-2-oxopyrrolidin-3-yl)-4-(trifluoromethoxy)butan-2-yl)-5-azaspiro[2.4]heptane-6-carboxamide]	0.05 to 0.2	–	–
CC(C)C[C@H](NC(=O)C(=O)Nc1cccnc1C(F)(F)F)C(=O)N[C@@H](C[C@@H]1CCNC1=O)C(=O)COc1c(F)c(F)cc(F)c1F [Compound 48, N1-((S)-4-methyl-1-oxo-1-(((S)-3-oxo-1-((S)-2-oxopyrrolidin-3-yl)-4-(2,3,5,6-tetrafluorophenoxy)butan-2-yl)amino)pentan-2-yl)-N2-(2-(trifluoromethyl)-pyridin-3-yl)oxalamide]	–	< 0.05	–
O=C1NCC[C@H]1C[C@@H](NC(=O)[C@@H]1C[C@H]2C[C@H]2N1C(=O)[C@@H]1CCCO1)C(=O)COC(F)(F)F [Compound 326, (1R,3S,5R)-N-(3-oxo-1-((S)-2-oxopyrrolidin-3-yl)-4-(trifluoromethoxy)butan-2-yl)-2-((S)-tetrahydrofuran-2-carbonyl)-2-azabicyclo[3.1.0]-hexane-3-carboxamide]	–	–	EC50 (HeLa-ACE2 cells, SARS-CoV-2 infection, 24 h, bound printed in cell): > 1 µM
CC(C)C[C@H](NC(=O)OCc1cccc(Cl)c1)C(=O)N[C@@H](C[C@@H]1CCNC1=O)C(=O)COC(F)(F)F [Compound 199, 3-chlorobenzyl ((S)-4-methyl-1-oxo-1-(((S)-3-oxo-1-((S)-2-oxopyrrolidin-3-yl)-4-(trifluoromethoxy)butan-2-yl)amino)pentan-2-yl)carbamate]	–	< 0.05	–
CC[C@@H](O)C(=O)N[C@H](CC1(C)CC1)C(=O)N[C@@H](C[C@@H]1CCNC1=O)C(=O)COC(F)(F)F [Compound 375, (R)-2-hydroxy-N-((R)-3-(l-methylcyclopropyl)-1-oxo-1-(((S)-3-oxo-l-((S)-2-oxopyrrolidin-3-yl)-4-(trifluoromethoxy)butan-2-yl)amino)propan-2-yl)butanamide]	–	0.05 to 0.2	–
O=C(Nc1ccccc1F)C(=O)N1CC2(C[C@H]1C(=O)N[C@@H](C[C@@H]1CCNC1=O)C(=O)COC(F)(F)F)CC2(F)F (stereo partly drawn) [Compound 482, (6S)-1,1-difluoro-5-(2-((2-fluorophenyl)amino)-2-oxoacetyl)-N-((S)-3-oxo-1-((S)-2-oxopyrrolidin-3-yl)-4-(trifluoromethoxy)butan-2-yl)-5-azaspiro[2.4]heptane-6-carboxamide]	0.05 to 0.2	–	–
CC(C)C[C@H](O)C(=O)N[C@@H](C[C@@H]1CCNC1=O)C(=O)COC(F)(F)F [Compound 719, (S)-2-hydroxy-4-methyl-N-((S)-3-oxo-1-((S)-2-oxopyrrolidin-3-yl)-4-(trifluoromethoxy)butan-2-yl)pentanamide]	0.5 to 1	–	–
CC(C)C[C@H](NC(=O)C(=O)NCC1CCCC1)C(=O)N[C@@H](C[C@@H]1CCNC1=O)C(=O)COc1c(F)c(F)cc(F)c1F [Compound 81, N^1-(cyclopentylmethyl)-N^2—((S)-4-methyl-1-oxo-1-(((S)-3-oxo-1-((S)-2-oxopyrrolidin-3-yl)-4-(2,3,5,6-tetrafluorophenoxy)butan-2-yl)amino)pentan-2-yl)oxalamide]	–	0.05 to 0.2	–
CC(C)C[C@@H](O)C(=O)N(C(=O)[C@@H]1C[C@@]2(C)C[C@H]2N1)[C@@H](C[C@@H]1CCNC1=O)C(=O)COC(F)(F)F [Compound 449, (1R,3S,5R)-2-((R)-2-hydroxy-4-methylpentanoyl)-5-methyl-N-((S)-3-oxo-1-((S)-2-oxopyrrolidin-3-yl)-4-(trifluoromethoxy)butan-2-yl)-2-azabicyclo[3.1.0]-hexane-3-carboxamide]	0.05 to 0.2	–	–

From patent publication US11708348B2, “Protease inhibitors for treatment of coronavirus infections” (The Scripps Research Institute, priority 2021, dated 2023)
